Measured values as given in patent publication US12605407B2, “Methods to induce terminal differentiation in stem cells by interfering with DNA replication, methods of inducing pancreatic differentiation, and differentiated cells obtained thereof” (priority 2018, dated 2026).

Columns and labels:
pancreatic progenitors = test: Beta cell differentiation from human pluripotent stem cells, flow cytometry of C-peptide and NKX6.1 positive cells; format: cell-based
Method: Beta cells differentiated from human pluripotent stem cell lines as described in Example 2 (Sui et al., 2018b). Indicated compounds that function as cell cycle inhibitors were added individually from day 15 to day 27 with concentration listed below:
The DNA replication inhibitors used in this study: 0.1 μM, 0.5 μM and 1 μM Aphidicolin (A0781, Sigma-Aldrich); 2.5 μM Cisplatin (232120, EMD Millipore); 100 μM Ciprofloxacin (S2027, Selleck Chemicals); 10 μM Pyridostatin (S7444, Selleck Chemicals); 10 μM E2F Inhibitor (324461, EMD Millipore); 0.05 μM A485 (6387, Tocris); 2 μM RL5a (SML2187, Sigma-Aldrich); and 2 μM Etoposide (E55500, Research Products International). Indicated compounds were added individually from day 15 to day 27 with indicated concentration.
(§1) The beta cell clusters were dissociated using TrypLE™ Express into single cells. Cells were fixed with 4% PFA for 10 min and followed by permeabilization at −20° C. with cold methanol for 10 min. Primary antibodies were added at a dilution of 1:100 in autoMACs Rinsing Solution (Cat. No. 130-091-222, Miltenyi Biotec) containing 0.5% BSA at 4° C. for 1 hour. Secondary antibodies were added at a dilution of 1:500 at room temperature for 1 hour. The cells were filtered with BD Falcon 12×75 mm tube with cell strainer cap (Cat. No. 352235, BD) and subsequently analyzed by flow cytometer. Data were analyzed using Flowjo software. Negative controls were performed by only adding secondary antibodies.
Aphidicolin (APH), a DNA polymerase inhibitor, was used to inhibit DNA replication (Koundrioukoff et al., 2013). […] The insulin expressing cells were evenly distributed in the islet-like clusters with high percentage indicated by the expression of GFP, whereas some parts of the clusters in control remained GFP negative (FIG. 1D).

[1] = test system: pancreatic progenitors and beta cells; test: Cell cycle progression profiling by flow cytometry (Edu incubation, Hoechst DNA content, KI67); format: cell-based, human
Method: as §1
To investigate the mechanism underlying the increased purity of stem cell-derived C-peptide positive cells induced by APH, cell proliferation, apoptosis and differentiation efficiency were examined during differentiation. The cell cycle progression was profiled at day 15, day 18, day 20 and day 27 of beta cell differentiation. In untreated cells, C-peptide positive cells started to form from day 15 (about 5%) (FIG. 2A) and reached a peak at day 20 (about 46%) (FIG. 2B). About 2% of total cells underwent proliferation during 2 hours of Edu incubation at each stage before day 20 and very few C-peptide positive cells were labeled positive for Edu (FIG. 2B). At day 27, the percentage of proliferating cells increased to about 13% and the percentage of C-peptide positive cells decreased due to proliferation of non-C-peptide cells in the clusters (FIG. 2B). When APH was added from day 15 to day 27, the number of C-peptide positive cells was increased as early as day 18, 3 days after addition of APH (FIG. 2C). At day 20, about 60% cells expressed C-peptide and the high expression of C-peptide was maintained until the day 27.
To determine the cell cycle phase at which aphidicolin arrested pancreatic progenitors and beta cells, flow cytometry combined with Hoechst staining for DNA content and EdU labeling was performed.
By the end of day 27, 30% of control cells were in cell cycle through G1 to M phase indicated by the expression of KI67 (a proliferation marker expressed in the cells within cell cycle) and amount of DNA content (FIG. 3A). […] The cell cycle gene expression in insulin expressing cells was also examined.

[2] = test system: stem cell derived beta cells; test: Western blotting of sorted GFP positive cells; format: cell-based, human; conditions: Western Blot
Method: The sorted GFP positive and negative cells with and without cell cycle inhibitor (e.g., APH) treatment were lysed with RIPA buffer. Protein was quantified with Pierce BCA protein assay kit. 20 ug of protein was loaded on 4-20% Mini-PROTEAN TGS Precast Protein Gels (Cat. No. 4561094, Bio-Rad) from each condition and ran at 100 V for 1 hour followed by transferring protein on PVDF membrane. The membrane was blocked with 3% BSA in TBST for 1 hour at RT, incubate with primary antibodies diluted in TBST with 3% BSA overnight on a shaker. After washing with TBST, the membrane was incubated with secondary antibodies diluted in TBST with 3% non-fat dry milk powder for 1 hour at room temperature. The image was taken using ChemiDoc Imaging Systems (Bio-Rad).
Insulin positive cells were isolated based on GFP expression and the expressions of genes related to the maturation of beta cells including PDX1, NKX6.1, MAFA and insulin were evaluated (FIG. 6A). […] In addition, the C-peptide secretion was increased 2-6-fold, with an average of 3-fold, in response to high levels of glucose (FIG. 6D).

[3] = test system: stem cell derived beta cells; test: Stability of beta cell identity in long-term culture after removal of compound at day 27; format: cell-based, human
Method: as §1
With APH, a high proportion of cells in the islet-like clusters were positive for C-peptide and NKX6.1, a transcription factor for maintaining the beta cell identity and functional maturation (Schaffer et al., 2013). […] Beta cells were cultured for additional 7 days until about day 34 and 30 days until about day 60 upon removal of these compounds at day 27. […] In contrast, in APH treated cells, there was no decrease in C-peptide or NKX6.1 on day 34 (FIG. 5A). […] After further culturing of the cells for extra 30 days, very few of cells in control group remained GFP expression and were positive for C-peptide.
The ability of other DNA replication inhibitors to stabilize the beta cell identity was investigated. The expressions of GFP were maintained after releasing cells from these inhibitors for 7 days until day 34. With additional 30 days of culture, the expressions of GFP were reduced in all conditions at certain levels, but the cells treated with Cis and Eto expressed higher GFP than the cells treated with APH compared to the other conditions (FIG. 5E, FIG. 5F).

[4] = APH added d15-d20, d20-d27 or d15-d27, read at day 27, versus control

`C[C@@]1(CO)[C@H](O)CC[C@@]2(C)[C@H]1CC[C@H]1C[C@@H]3C[C@@]12CC[C@]3(O)CO` [APH, Aphidicolin] was tested, and the “variability of beta cell differentiation” value (pancreatic progenitors) was “reduced”, the “percentage of c-peptide and NKX6.1 positive cells, comparison of concentrations” value (pancreatic progenitors; 1 μM, d15-d27, compared with 0.1 μM and 0.5 μM) was “highest percentage” and the “proportion of C-peptide and NKX6.1 dual positive cells” value (pancreatic progenitors; [4]) was “increased”. For the same molecule, the “proportion of C-peptide positive cells” value (pancreatic progenitors; [4]) was “increased”, the “differentiation toward C-peptide and NKX6.1 positive cells, comparison of treatment windows” value (pancreatic progenitors; APH added from day 15 to day 27) was “most effective” and the “C-peptide positive cells in cultures” value (pancreatic progenitors; all n=12 independent differentiation experiments) was “more than 50%”. The “effectiveness to induce differentiation of pancreatic progenitors to C-peptide positive cells, comparison within panel” value (pancreatic progenitors; day 27) was “most effective”, the “number of C-peptide positive cells” value ([1]; day 18, 3 days after addition of APH (added day 15 to day 27)) was “increased” and the “cells expressing C-peptide” value ([1]; day 20, APH added from day 15) was “about 60%”. The “cell cycle phase of arrest” value ([1]; end of day 27) was “arrested in G1 phase”, the “cells in cell cycle (KI67)” value ([1]; end of day 27) was “About 5%” and the “high expression of C-peptide” value ([1]; until day 27, APH added day 15 to day 27) was “maintained”. The “proliferating cells (Edu)” value ([1]; whole duration of differentiation, APH day 15 to day 27) was “Very few cells, if any”, the “expression of MAFA at the translational level” value [2] was “increased expression” and the “expression of NKX6.1 at the translational level” value [2] was “increased expression”. For the same molecule, the “expression of PDX1 at the translational level” value [2] was “increased expression”, the “expression of insulin at the translational level” value [2] was “increased expression” and the “percentage of C-peptide positive cells, and C-peptide and NKX6.1 double positive cells, relative to day 27 before releasing” value ([3]; after 7 days of releasing cells from APH (day 34)) was “comparable”. The “C-peptide or NKX6.1” value ([3]; day 34, APH removed on day 27) was “no decrease”, the “number of GFP and C-peptide positive cells compared to day 27 before removal” value ([3]; day 60) was “decreased” and the “percentage of C-peptide positive cells” value ([3]; day 60, APH treatment days 15-27) was “about 34%”.
